Here are results for eight compounds from US8796293B2, “Purine and deazapurine derivatives as pharmaceutical compounds” (Astex Therapeutics Limited, priority 2006, dated 2014).

The target of one series is ROCK-II (h) (Homo sapiens (Human), UniProt O75116). Description: ROCK-II (h) assay, radiometric filter assay. The series is classed as biochemical. The conditions noted are these: read-out: IC50 (anti-ROCK-II activity). The method, then:
(specific activity approx. 500 cpm/pmol, concentration as required). The reaction is initiated by the addition of the MgATP mix. After incubation for 40 minutes at room temperature, the reaction is stopped by the addition of 5 μl of a 3% phosphoric acid solution. 10 μl of the reaction is then spotted onto a P30 filtermat and washed three times for 5 minutes in 75 mM phosphoric acid and once in methanol prior to drying and scintillation counting.
The compound of various examples described above were tested for anti-ROCK-II activity (assay as described above): […]

A further series addresses P70S6 kinase (T412E) (Homo sapiens (Human), UniProt P23443, T412E). The experiment in a line: P70S6 radiometric assay. The series is classed as biochemical. The procedure:
P70S6 enzyme is bought from Upstate and used at 2 nM in the assay. […] In the phosphoryl transfer reaction, the ^33P-γ phosphate from ATP is transferred to the serine residue. The reaction mixture is transferred to a phosphocellulose filter plate where the peptide binds and the unused ATP is washed away. After washing, scintillant is added and the incorporated activity measured by scintillation counting.
ATP (10 mM stock) added fresh from concentrated stocks.
Compounds—prepare a dilution curve in DMSO in a polypropylene 96 well plate to 40× final assay concentration (final DMSO 2.5%).
In a polypropylene 96 well plate add in order: • 5 μl compound • 10 μl substrate mix • 10 μl enzyme mix
Controls are “no compound” (DMSO only) and “no enzyme” (use 10 μl of the enzyme mix prior to adding enzyme). Cover with a plate seal (TopSeal A—Packard) or plastic lid from filter plate (moderate radiation barrier). Mix by gentle shaking. Incubate at room temperature for 50 minutes. Stop the reaction by adding 20 μl of 2% orthophosphoric acid.
Pre-wet the wells of a Millipore MAPH NOB plate with 50 μl of 0.5% orthophosphoric acid wash buffer. Filter the liquid through on a Millipore vacuum filtration unit. Transfer the whole of the stopped reaction to the wells. Filter through. Wash twice with 200 μl of 0.5% orthophosphoric acid wash buffer. Vacuum to near dryness. Remove the plate support and allow to the filters to dry further on tissue paper. Snap the plate into an adapter for the Packard TopCount. Add 20 μl of Microscint 20 scintillant, seal with a sheet of Topseal A and count for 30s on the TopCount.

The subject of another series is blood pressure. The conditions noted are these: cited from earlier work.
For series [1] the following is noted: rat, in vivo, po, 30 mg/kg; cited from earlier work.
Setting [2] is: enzyme 2 nM, ATP approximately 15 μM, 50 minutes at room temperature, read-out: IC50 (anti-P70S6K activity).
[3] abbreviates: [γ-33P-ATP], 40 minutes at room temperature.

Read-outs that look alike come from different tables or passages of the source. A value given as a limit tells only on which side of the number the result lay.

ROCK-II (h), sequence (O75116 whole entry): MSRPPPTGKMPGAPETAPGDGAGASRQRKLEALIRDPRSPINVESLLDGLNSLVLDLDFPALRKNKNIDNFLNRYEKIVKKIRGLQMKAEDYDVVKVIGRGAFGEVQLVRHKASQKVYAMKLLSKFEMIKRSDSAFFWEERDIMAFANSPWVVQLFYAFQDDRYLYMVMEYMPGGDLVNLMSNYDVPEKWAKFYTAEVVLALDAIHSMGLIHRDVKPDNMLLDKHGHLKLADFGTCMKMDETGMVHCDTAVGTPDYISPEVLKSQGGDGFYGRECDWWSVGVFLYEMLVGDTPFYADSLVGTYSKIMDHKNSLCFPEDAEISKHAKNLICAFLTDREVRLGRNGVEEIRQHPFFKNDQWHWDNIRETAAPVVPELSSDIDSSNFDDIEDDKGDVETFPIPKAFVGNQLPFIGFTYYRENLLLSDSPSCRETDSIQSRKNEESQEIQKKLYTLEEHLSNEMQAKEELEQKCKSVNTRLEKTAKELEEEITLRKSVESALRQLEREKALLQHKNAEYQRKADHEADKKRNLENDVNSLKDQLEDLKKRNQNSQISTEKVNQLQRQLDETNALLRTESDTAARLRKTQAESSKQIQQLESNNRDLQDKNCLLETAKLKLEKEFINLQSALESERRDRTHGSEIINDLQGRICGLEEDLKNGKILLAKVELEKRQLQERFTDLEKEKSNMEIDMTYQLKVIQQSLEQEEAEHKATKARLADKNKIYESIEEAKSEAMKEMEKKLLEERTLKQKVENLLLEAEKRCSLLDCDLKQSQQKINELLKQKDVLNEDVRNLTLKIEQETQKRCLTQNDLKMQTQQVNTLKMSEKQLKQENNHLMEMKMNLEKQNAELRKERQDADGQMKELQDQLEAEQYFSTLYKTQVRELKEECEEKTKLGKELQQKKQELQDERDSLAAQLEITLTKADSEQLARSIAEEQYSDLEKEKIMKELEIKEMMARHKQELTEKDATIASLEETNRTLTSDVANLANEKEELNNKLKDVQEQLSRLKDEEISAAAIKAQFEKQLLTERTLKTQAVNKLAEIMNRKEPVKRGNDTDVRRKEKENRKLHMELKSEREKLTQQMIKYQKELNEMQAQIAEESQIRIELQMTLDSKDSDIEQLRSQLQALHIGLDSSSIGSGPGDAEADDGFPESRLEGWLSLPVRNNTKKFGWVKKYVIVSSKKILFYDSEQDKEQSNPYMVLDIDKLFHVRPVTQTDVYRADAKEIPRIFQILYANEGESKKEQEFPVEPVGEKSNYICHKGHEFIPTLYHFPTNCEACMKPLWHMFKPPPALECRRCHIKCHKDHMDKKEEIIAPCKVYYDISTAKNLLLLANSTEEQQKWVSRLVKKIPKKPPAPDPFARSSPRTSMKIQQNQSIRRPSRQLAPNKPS
P70S6 kinase (T412E), sequence (P23443 whole entry T412E): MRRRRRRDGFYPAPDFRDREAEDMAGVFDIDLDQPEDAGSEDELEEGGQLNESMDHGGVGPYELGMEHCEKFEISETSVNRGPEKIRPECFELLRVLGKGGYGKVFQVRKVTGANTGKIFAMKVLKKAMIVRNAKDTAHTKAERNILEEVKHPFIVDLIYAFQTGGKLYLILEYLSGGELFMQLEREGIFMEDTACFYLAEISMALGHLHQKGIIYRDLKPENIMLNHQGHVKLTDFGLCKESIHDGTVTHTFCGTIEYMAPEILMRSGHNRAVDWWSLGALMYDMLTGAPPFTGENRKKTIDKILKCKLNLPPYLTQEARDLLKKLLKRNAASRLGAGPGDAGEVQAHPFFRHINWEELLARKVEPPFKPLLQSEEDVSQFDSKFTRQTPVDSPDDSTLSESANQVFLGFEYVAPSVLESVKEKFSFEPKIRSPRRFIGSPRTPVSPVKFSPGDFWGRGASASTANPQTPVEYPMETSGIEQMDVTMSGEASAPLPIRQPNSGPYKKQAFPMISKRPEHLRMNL

Regarding `NC1CCN(c2ncnc3[nH]c(=O)[nH]c23)CC1` [Example 4, 6-(4-Aminopiperidin-1-yl)-7,9-dihydropurin-8-one], the IC50 at ROCK-II (h) is > 1000 nM; at P70S6 kinase (T412E) (setting [2]), 3000 nM.
Consider `NC1(Cc2ccccc2Cl)CCN(c2ncnc3[nH]ccc23)CC1` [Example 55, 4-(2-Chlorobenzyl)-1-(7H-pyrrolo[2,3-d]pyrimidin-4-yl)piperidin-4-ylamine], for which the IC50 on ROCK-II (h) (setting [3]) was > 1000 nM.
On to `NC1(Cc2ccc(Cl)cc2)CCN(c2ccnc3[nH]ccc23)CC1` [Example 54, 4-(4-Chlorobenzyl)-1-(1H-pyrrolo[2,3-b]pyridin-4-yl)-piperidin-4-ylamine], for which the IC50 at ROCK-II (h) (setting [3]) is < 10 nM; at P70S6 kinase (T412E) (setting [2]) it was 30 nM.
As to `NC1(c2ccc(Cl)cc2)CCN(c2ncnc3[nH]ccc23)CC1` [Example 25, 4-(4-Chlorophenyl)-1-(7H-pyrrolo[2,3-d]pyrimidin-4-yl)piperidin-4-ylamine], the half-inhibitory concentration (IC50) on P70S6 kinase (T412E) was found to be 13 nM.
For the compound `NC1(Cc2ccc(Cl)cc2)CCN(c2ncnc3[nH]ccc23)CC1` [Example 17, 4-(4-Chlorobenzyl)-1-(7H-pyrrolo[2,3-d]pyrimidin-4-yl)piperidin-4-ylamine], the IC50 at ROCK-II (h) (setting [3]) was < 1000 nM; on P70S6 kinase (T412E) (setting [2]), 94 nM.
Take `NCC1(c2ccc(OC(F)(F)F)cc2)CCN(c2ncnc3[nH]ccc23)CC1` [Example 30]: the 50% inhibitory concentration (IC50) at P70S6 kinase (T412E) (setting [2]) was determined as 7 nM.
As to `C[C@@H](N)[C@H]1CC[C@H](C(=O)Nc2ccncc2)CC1` [Example Y-27632], the results for the “effect on blood pressure” value in the series with blood pressure (hypertensive rats) and with blood pressure (normal rats) were “reduces blood pressure” and “does not affect blood pressure”, respectively. Further, in series [1], the toxicity in rats result is given as “not toxic”.
Consider `NC1(Cc2ccc(Cl)cc2Cl)CCN(c2ncnc3[nH]ccc23)CC1` [Example 59, 4-(2,4-Dichlorobenzyl)-1-(7H-pyrrolo[2,3-d]pyrimidin-4-yl)piperidin-4-ylamine], for which the IC50 was < 30 nM at ROCK-II (h) and 59 nM at P70S6 kinase (T412E) (setting [2]).

By IC50 is commonly meant the point on the concentration scale where inhibition reaches its midpoint.
